# Test results published in patent US8481546B2, “CGRP receptor antagonist” (Bristol-Myers Squibb Company, priority 2010, dated 2013).
# Read-outs that look alike come from different tables or passages of the source.
# Assays:
# [1] = system: olfactory epithelium (nasal tissues); experiment: One-week comparative intranasal irritation study in rats (Compound I vs Compound III): nasal histology and tolerability; type: in vivo; details: for Olfactory Epithelial Atrophy, incidence of severity Marked (number of rats) / Olfactory Epithelial Atrophy, incidence of severity Mild (number of rats) / Olfactory Epithelial Atrophy, incidence of severity Minimal (number of rats) / Olfactory Epithelial Atrophy, incidence of severity Moderate (number of rats) / Olfactory Epithelial Atrophy, incidence of severity None (number of rats): 1 week
# Experimental: This study was conducted to compare potential nasal irritation of Compound I to Compound III when given intranasally to male rats for 1 week. Male rats (10/group) were instilled intranasally with Compound I or Compound III solutions ([…] in 225 mM succinic acid, 0.02% benzalkonium chloride, 1.25% anhydrous dextrose, pH 5.8-6.2) once daily at a dose volume of 100 μL/nostril. Using this dosing paradigm, fixed doses of 5, 15 or 35 mg of test article were delivered daily. As a consequence, dosages normalized to body weight decreased with time as the rats grew. One control group was given succinate vehicle and a sham control group was given saline by intranasal instillation. Parameters evaluated included clinical observations, body weight, food consumption, toxicokinetics, and histological evaluation of nasal tissues.
# [2] = molecular target: T1, CGRP receptor, SK-N-MC cell membrane preparation (Homo sapiens, UniProt O60894+Q16602); experiment: Saturation binding of [125I]CGRP with or without Compound I
# T1 construct: endogenous in cells; host or cells: SK-N-MC human neuroblastoma cells (membrane homogenate or attached whole cells)
# T1 sequence (Q16602 23-461): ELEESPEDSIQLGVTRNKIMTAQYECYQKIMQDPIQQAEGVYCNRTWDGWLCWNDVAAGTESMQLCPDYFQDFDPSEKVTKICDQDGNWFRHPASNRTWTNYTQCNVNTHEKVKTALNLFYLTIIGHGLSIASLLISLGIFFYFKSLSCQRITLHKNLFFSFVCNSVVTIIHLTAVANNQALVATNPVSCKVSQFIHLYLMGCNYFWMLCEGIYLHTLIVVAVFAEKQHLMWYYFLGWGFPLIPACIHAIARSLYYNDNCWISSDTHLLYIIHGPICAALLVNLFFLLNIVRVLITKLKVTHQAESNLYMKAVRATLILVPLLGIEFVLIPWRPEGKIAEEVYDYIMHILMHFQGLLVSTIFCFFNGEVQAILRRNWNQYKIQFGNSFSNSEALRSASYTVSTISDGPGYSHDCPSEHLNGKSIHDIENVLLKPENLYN
# T1 sequence (O60894 27-148): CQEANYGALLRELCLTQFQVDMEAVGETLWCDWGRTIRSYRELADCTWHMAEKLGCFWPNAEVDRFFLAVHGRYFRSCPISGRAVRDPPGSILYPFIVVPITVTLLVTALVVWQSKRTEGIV
# Experimental: The nature of the interaction between the endogenous CGRP peptide and Compound I is studied in detail using saturation binding experiments. Briefly, the binding of [^125I]CGRP to the SK-N-MC cell membrane preparation is measured with increasing concentration of [^125I]CGRP without (control condition) or in the presence of (test conditions) one of the two concentrations (30 pM and 100 pM) of Compound I. Saturation data are analyzed with hyperbolic equations using Kell software (Biosoft, Cambridge, UK) to estimate dissociation constant (Kd) and the maximum number of binding sites (Bmax). The impact of the addition of Compound I to the binding parameters (Kd, Bmax) of [^125I]CGRP is measured and compared.
# Solution state stability = type: physicochemical
# Experimental: The solution state stability of Compound I was evaluated as a function of temperature, pH, high intensity light (HIL), buffer concentration, and drug concentration.
# Succinate buffer was used for all solutions. For samples exposed to light, a photostability chamber was used in accordance with ICH guidelines (1.2 million lux hour exposure to visible light and 200 watt hour/m^2 to UV). Analyses were performed at 4, 8 and 12 weeks.
# [3] = Aqueous solubility, pH dependence; type: physicochemical
# Experimental: Solid free base was mixed with carbonate, and ethanolamine buffers. The pH of a third sample was adjusted with HCl. The solids were mixed with the vehicles using a mixer that was enclosed within an incubator set to 25 C. After equilibration, samples of the supernatant were withdrawn, diluted as appropriate, and analyzed by HPLC.
# Crystalline Compound I converted to a gelatinous phase during measurement of the pH solubility profile. The absence of a crystalline phase in equilibrium with water prevents a confident assessment of the pH range in which Compound I can be formulated as a thermodynamically stable solution. Efforts to generate a crystalline free base form of Compound I that can be equilibrated in water are ongoing.
# [4] = nasal instillation 5 mg (0.357 mg/cm^2) once daily
# [5] = nasal instillation 15 mg (1.07 mg/cm^2) once daily
# [6] = nasal instillation 35 mg (2.50 mg/cm^2) once daily
# [7] = in the presence of 30 pM Compound I
# [8] = in the presence of 100 pM Compound I
# [9] = Sample A: pH 4, 40 C, 0.1 mg/ml drug, 0.05 M succinate buffer
# [10] = Sample B: pH 5, 25 C, 0.1 mg/ml drug, 0.05 M succinate buffer
# [11] = Sample C: pH 5, 25 C/light, 0.1 mg/ml drug, 0.05 M succinate buffer
# [12] = Sample D: pH 5, 60 C, 0.1 mg/ml drug, 0.05 M succinate buffer
# [13] = Sample E: pH 5, 40 C, 0.1 mg/ml drug, 0.05 M succinate buffer
# [14] = Sample F: pH 6, 40 C, 0.1 mg/ml drug, 0.05 M succinate buffer
# [15] = Sample G: pH 4, 40 C, 40 mg/ml drug, 0.05 M succinate buffer
# [16] = Sample H: pH 5, 40 C, 40 mg/ml drug, 0.05 M succinate buffer
# [17] = Sample I: pH 6, 40 C, 40 mg/ml drug, 0.05 M succinate buffer
# [18] = Sample J: pH 5, 40 C, 0.1 mg/ml drug, 0.01 M succinate buffer
structure (smiles),measurement,setting,value
"Cc1cc(C[C@@H](NC(=O)N2CCC(c3cc4ccccc4[nH]c3=O)CC2)C(=O)N2CCN(C3CCN(C)CC3)CC2)cc2cn[nH]c12 [Compound I, (R)—N-(3-(7-methyl-1H-indazol-5-yl)-1-(4-(1-methylpiperidin-4-yl)piperazin-1-yl)-1-oxopropan-2-yl)-4-(2-oxo-1,2-dihydroquinolin-3-yl)piperidine-1-carboxamide]",tolerability of intranasal administration,"[1]; male rats, 5, 15 or 35 mg once daily for 1 week",well tolerated
same,"Olfactory Epithelial Atrophy, incidence of severity Marked (number of rats)",[1]; [4],0
same,"Olfactory Epithelial Atrophy, incidence of severity Mild (number of rats)",[1]; [4],0
same,"Olfactory Epithelial Atrophy, incidence of severity Minimal (number of rats)",[1]; [4],1
same,"Olfactory Epithelial Atrophy, incidence of severity Moderate (number of rats)",[1]; [4],0
same,"Olfactory Epithelial Atrophy, incidence of severity None (number of rats)",[1]; [4],8
same,"Olfactory Epithelial Atrophy, incidence of severity Marked (number of rats)",[1]; [5],0
same,"Olfactory Epithelial Atrophy, incidence of severity Mild (number of rats)",[1]; [5],2
same,"Olfactory Epithelial Atrophy, incidence of severity Minimal (number of rats)",[1]; [5],6
same,"Olfactory Epithelial Atrophy, incidence of severity Moderate (number of rats)",[1]; [5],0
same,"Olfactory Epithelial Atrophy, incidence of severity None (number of rats)",[1]; [5],1
same,"Olfactory Epithelial Atrophy, incidence of severity Marked (number of rats)",[1]; [6],0
same,"Olfactory Epithelial Atrophy, incidence of severity Mild (number of rats)",[1]; [6],2
same,"Olfactory Epithelial Atrophy, incidence of severity Minimal (number of rats)",[1]; [6],3
same,"Olfactory Epithelial Atrophy, incidence of severity Moderate (number of rats)",[1]; [6],0
same,"Olfactory Epithelial Atrophy, incidence of severity None (number of rats)",[1]; [6],4
same,Bmax of [125I]CGRP,[2]; [7],112.1 ± 20.6 fmol/mg protein
same,Kd of [125I]CGRP,[2]; [7],0.058 ± 0.0196 nM
same,Bmax of [125I]CGRP,[2]; [8],146.8 ± 6.4 fmol/mg protein
same,Kd of [125I]CGRP,[2]; [8],0.1297 ± 0.0319 nM
same,Area percent of Deg A at twelve weeks,Solution state stability; [9],2.0 area percent
same,Area percent of Deg C at twelve weeks,Solution state stability; [9],10.5 area percent
same,Area percent of Deg A at twelve weeks,Solution state stability; [10],.5 area percent
same,Area percent of Deg B at twelve weeks,Solution state stability; [10],0.1 area percent
same,Area percent of Deg A at twelve weeks,Solution state stability; [11],16.9 area percent
same,Area percent of Deg B at twelve weeks,Solution state stability; [11],2.9 area percent
same,Area percent of Deg C at twelve weeks,Solution state stability; [11],2.8 area percent
same,Area percent of Deg D at twelve weeks,Solution state stability; [11],5.2 area percent
same,Area percent of Deg E at twelve weeks,Solution state stability; [11],1.0 area percent
same,Area percent of Deg F at twelve weeks,Solution state stability; [11],7.7 area percent
same,Area percent of Deg I at twelve weeks,Solution state stability; [11],5.7 area percent
same,Area percent of Deg A at twelve weeks,Solution state stability; [12],1.2 area percent
same,Area percent of Deg C at twelve weeks,Solution state stability; [12],55.0 area percent
same,Area percent of Deg A at twelve weeks,Solution state stability; [13],1.9 area percent
same,Area percent of Deg B at twelve weeks,Solution state stability; [13],0.2 area percent
same,Area percent of Deg E at twelve weeks,Solution state stability; [13],.1 area percent
same,Area percent of Deg A at twelve weeks,Solution state stability; [14],.4 area percent
same,Area percent of Deg B at twelve weeks,Solution state stability; [14],0.1 area percent
same,Area percent of Deg E at twelve weeks,Solution state stability; [14],.1 area percent
same,Area percent of Deg A at twelve weeks,Solution state stability; [15],4.9 area percent
same,Area percent of Deg E at twelve weeks,Solution state stability; [15],3.5 area percent
same,Area percent of Deg G at twelve weeks,Solution state stability; [15],0.1 area percent
same,Area percent of Deg H at twelve weeks,Solution state stability; [15],.1 area percent
same,Area percent of Deg J at twelve weeks,Solution state stability; [15],0.1 area percent
same,Area percent of Deg A at twelve weeks,Solution state stability; [16],1.2 area percent
same,Area percent of Deg B at twelve weeks,Solution state stability; [16],0.1 area percent
same,Area percent of Deg E at twelve weeks,Solution state stability; [16],0.0 area percent
same,Area percent of Deg G at twelve weeks,Solution state stability; [16],0.1 area percent
same,Area percent of Deg J at twelve weeks,Solution state stability; [16],0.0 area percent
same,Area percent of Deg A at twelve weeks,Solution state stability; [17],.2 area percent
same,Area percent of Deg B at twelve weeks,Solution state stability; [17],0.1 area percent
same,Area percent of Deg C at twelve weeks,Solution state stability; [17],0.0 area percent
same,Area percent of Deg E at twelve weeks,Solution state stability; [17],0.0 area percent
same,Area percent of Deg G at twelve weeks,Solution state stability; [17],0.1 area percent
same,Area percent of Deg J at twelve weeks,Solution state stability; [17],0.1 area percent
same,Area percent of Deg A at twelve weeks,Solution state stability; [18],1.1 area percent
same,Area percent of Deg B at twelve weeks,Solution state stability; [18],0.1 area percent
same,Area percent of Deg E at twelve weeks,Solution state stability; [18],.1 area percent
same,Area percent of Deg H at twelve weeks,Solution state stability; [18],0.5 area percent
same,degradation after 12 weeks at 40 C,"Solution state stability; condition I in Table 2: pH 6, 40 C, 40 mg/ml drug, 0.05 M buffer",0.3%
same,solubility,"[3]; Partial titration of Compound I with HCl, pH = 8.5, 25 C",105000 µg/mL
same,solubility,"[3]; aqueous buffer, thermodynamic from solid, Carbonate buffer, pH = 10.4, 25 C, read-out: Solubility",200 µg/mL
same,solubility,"[3]; aqueous buffer, thermodynamic from solid, Ethanolamine buffer, pH = 9.4, 25 C, read-out: Solubility",500 µg/mL
same,solubility,"[3]; aqueous media, aqueous buffer, thermodynamic from solid, pH < 8.5, 25 C, read-out: Solubility",> 300000 µg/mL
